From patent US20040023884A1, “Biologically active peptides from functional domains of bactericidal/permeability-increasing protein and uses thereof” (priority 1993, published 2004)
Square brackets hold non-standard residues; d marks the D form. Ends that are not written are not given here. 1Nal = N[C@@H](Cc1cccc2ccccc12)C(=O)O

Assays:
[1] = LPS binding by tryptophan fluorescence quenching; details: for Kd: Stern-Volmer plots
Source text: (§1) The naturally-occurring amino acid tryptophan can emit light (i.e., it fluoresces) having a wavelength between 300 and 400 nm after excitation with light having a wavelength of between about 280 nm and 290 nm, preferably 285 nm. The amount of emitted light produced by such fluorescence is known to be affected by the local environment, including pH and buffer conditions, as well as binding interactions between proteins and other molecules. Some BPI functional domain peptides derived from domains II and III contain tryptophan residues, and tryptophan fluorescence was used to assay binding interactions between the BPI functional domain peptides of the invention and LPS or heparin.
(§2) Tryptophan fluorescence of the BPI functional domain peptides of the invention was determined in the presence or absence of LPS or heparin using a SPEX Fluorolog fluorimeter. Samples were excited with 285 nm light using a 0.25 nm slitwidth. Emission wavelengths were scanned between 300-400 nm using a 1.25 nm slitwidth. Data were accumulated as the average of three determinations performed over an approximately 5 min time span. Samples were maintained at 25° C. or 37° C. during the course of the experiments using a circulating water bath. Crab endotoxin binding protein (CEBP), a protein wherein the intrinsic fluorescence of tryptophan residues is affected by binding to LPS, was used as a positive control. (See Wainwright et al., 1990, Cellular and Molecular Aspects of Endotoxin Reactions, Nowotny et al., eds., Elsevier Science Publishing B.V., The Netherlands, pp. 315-325).
(§3) Kd values were determined by Scatchard-type Stern-Volmer plots of the quenching data as the negative inverse of the slope of such plots. Comparing the data for BPI.10, BPI.46 and BPI.47, it is seen that as the Kd decreased (indicating an increase in avidity for LPS), the percent fluorescence quenching increased. The differences between these peptides include replacement of basic and polar amino acid residues with non-polar residues in […] as compared with BPI.10. In contrast, as the Kd of heparin binding decreased, a corresponding increase in the percentage of fluorescence quenching was not detected.

[2] = Heparin binding by tryptophan fluorescence quenching; details: for Kd: Stern-Volmer plots
Source text: as §1, §2, §3

[3] = tested on: rough mutant E. coli J5 bacteria; assay: Radial diffusion bactericidal assay, E. coli J5; format: cell-based; details: radial diffusion; for pmol added to well to achieve a 30 mm^2 bactericidal zone, E. coli J5: PROBIT analysis, E. coli J5 (rough); for bactericidal activity (in words): E. coli J5
Method in brief: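 Log-phase bacteria (3 h at 37 °C in tryptic soy broth), washed in 10 mM sodium phosphate pH 7.4, were embedded at 4×10^6 CFU/mL in underlayer agarose. BPI proteolytic fragments (5 or 10 μL) went into 3 mm wells for 3 h at 37 °C, then agarose overlay and overnight 37 °C growth. Clear zones were measured by micrometer.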

[4] = tested on: E. coli 0111:B4 (smooth) bacteria; assay: Radial diffusion bactericidal assay, E. coli 0111:B4; format: cell-based; details: radial diffusion; for pmol added to well to achieve a 30 mm^2 bactericidal zone, E. coli O111:B4: PROBIT analysis, E. coli O111:B4 (smooth); for bactericidal activity (in words): E. coli 0111:B4
Staphylococcus aureus = assay: Radial diffusion bactericidal assay, Staphylococcus aureus; format: cell-based; details: radial diffusion; PROBIT analysis; S. aureus
[5] = tested on: Klebsiella pneumoniae 19645; assay: Radial diffusion bactericidal assay, antibiotic resistant Klebsiella pneumoniae 19645; format: cell-based
Experimental: These studies were conducted substantially following the procedures used in Example 2.
In order to test the bactericidal activity of BPI peptides on antibiotic resistant strains of Klebsiella pneumoniae, the multi-resistant clinically isolated strain 19645 was tested as in Example 2 and above. […] This strain was obtained from the Baxter Microscan® library (Sacramento, Calif.). An overnight culture of Klebsiella pneumoniae 19645 and a non-resistant strain (ATCC 29011) were diluted 1:50 into fresh tryptic soy broth and incubated for 3 hours at 37° C. to attain log phase. The overnight cultures were tested as described in Example 2 and part A above.

E. coli J5 (rough) = assay: Broth antibacterial assay, E. coli J5; format: cell-based
Experimental: (§4) In additional experiments, broth antibacterial assays were conducted to further determine the bactericidal activity of certain of the BPI peptides. Specifically, either E. coli J5 (rough) or E. coli 0111:B4 (smooth) bacteria were selected from single colonies on agar plates and used to inoculate 5 mL of Mueller Hinton broth and incubated overnight at 37° C. with shaking. The overnight culture was diluted (˜1:50) into 5 mL fresh broth and incubated at 37° C. to log phase (˜3 hours). Bacteria were pelleted for 5 minutes at 3000 rpm (1500×g). Bacterial pellets were resuspended in 5 mL PBS and diluted to 2×10^6 cells/mL in the Mueller Hinton broth (wherein 1 OD570 unit equals 1.25×10^9 CFU/mL). The BPI functional domain peptides to be tested were diluted to 200 μg/mL in broth and serially diluted 2-fold in 96 well culture plates (100 μL volume). All items were at 2-fold final concentration and experiments were conducted in triplicate. Bacteria were added at 100 μL/well and the plates were incubated on a shaker at 37° C. for a 20 hour period. The plates were then read on an ELISA plate multiple reader at 590 nm. One of the triplicate wells from each peptide concentration was selected for colony forming unit (CFU) determination. A 30 μL aliquot was added to 270 μL of PBS and further ten-fold serial dilutions were performed. Then a 50 μL aliquot was plated on tryptic soy agar and incubated overnight. Colonies were counted and final bacterial concentrations determined. The results of these assays are depicted in FIGS. 9e (for E. coli J5) and 9f (for E. coli 0111:B4).

E. coli 0111:B4 (smooth) = assay: Broth antibacterial assay, E. coli 0111:B4; format: cell-based
Experimental: as §4

[6] = 3H-heparin binding assay (affinity and capacity)
Method in brief: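 Peptide fragments were bound to PVDF-membrane wells and incubated with 3H-heparin in blocking buffer for 1 h at 4 °C. After washing, bound radioactivity was quantified by liquid scintillation counting, with BSA background subtracted; rBPI23 served as positive control.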

RAW 264.7 cells = assay: LPS neutralization cellular proliferation assay, RAW 264.7 cells; format: cell-based, mouse
Method in brief: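 Mouse RAW 264.7 cells were primed 24 h with 50U/mL mouse γ-interferon, then exposed about 15 h to E. coli O113 LPS in serum-free RPMI with or without BPI peptides at 25 ng/mL–50 μg/mL. Proliferation was quantified by [^3H]-thymidine uptake, 1 μCi/well, added at 5 h.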

[7] = In vitro heparin-mediated lengthening of APTT / clotting time of heparinized plasma; format: biochemical, human; details: FIG. 12g
Experimental: In vitro, the effect of BPI combination functional domain peptides was determined on heparin-mediated lengthening of activated partial […] (APTT). The APTT is lengthened by the presence of endogenous or exogenous inhibitors of thrombin formation, such as therapeutically administered heparin. Thus, agents which neutralize the anti-coagulant effects of heparin will reduce the APTT measured by the test. Citrated human plasma (200 μL) was incubated for 1 minute at 37° C. with either 15 μL of diluent (0.15 M NaCl, 0.1 M Tris-HCl, pH 7.4) or 15 μL of the diluent also containing 25 μg/mL heparin (187 units/mg). Various concentrations (from 0.0 to 56 μg/mL) of rBPI23, rBPI21Δcys, or BPI combination peptides BPI.29 (the DIII homodimer) and BPI.30 (heterodimer DII+DIII) in a volume of 15 μL were added, followed immediately by 100 μL of thrombin reagent (Catalog No. 845-4, Sigma Chemical Co., St. Louis. MO). Clotting time ([…]) was measured using a BBL Fibrometer (Becton Dickenson Microbiology Systems, Cockeysville, Md.). […] FIG. 12e illustrates the results obtained with BPI.30 on a non-log scale.

[8] = Lipid A binding competition with [125I]-rLBP
Experimental: A second binding assay was developed, wherein radiolabeled recombinant LPS binding protein ([^125I]-rLBP) was used instead of radiolabeled rBPI23 in competition experiments with BPI functional domain peptides BPI.2, BPI.3, BPI.4, BPI.5, BPI.7, BPI.13, BPI.14, BPI.29, BPI.30 and BPI.48, rBPI, rBPI21Δcys, and rLBP25 were included in these assays as controls. In these experiments, Lipid A was adsorbed to the wells at a concentration of 0.7 μg/mL in methanol. Incubation of radiolabeled rLBP (a total of 650,000 cpm and a specific activity of 3.45 μCi/μg) was performed for 2.5 hr at 37° C. in the presence of BPI peptides in a series of increasing concentrations. IC50 values (i.e., the concentration at which Lipid A binding of radiolabeled rLBP25 is inhibited to one half the value achieved in the absence of the peptide) are shown in accompanying Table XI.

[9] = tested on: LPS-stimulated NO production by RAW 264.7 cells; assay: LPS-stimulated NO production by RAW 264.7 cells; format: cell-based, mouse
Experimental: (§5) An additional LPS neutralization screening assay for BPI functional domain peptides was developed using an assay for NO production in mouse cells treated with LPS (see Lorsbach et al., 1993, J. Biol. Chem. 268: 1908-1913). In this assay, mouse RAW 264.7 cells (ATCC Accession No. TIB71) were treated with bacterial LPS. The cells were incubated in 96-well plates and stimulated for 2 hours with E. coli 0113 LPS or zymosan, in the presence or absence of _-interferon, rLBP, fetal bovine serum (FBS) or normal human serum (NHS), or rBPI21Δcys. After this incubation, the cells were washed with fresh media and incubated overnight in media containing 10% FCS. The NO released from the cells accumulated in the media and spontaneously converted to nitrite. This nitrite was assayed in situ by the Griess reaction, as follows. The nitrite was reacted with the primary amine of an added sulfanilamide and formed a diazonium salt. This salt was then reacted with added naphthylethylenediamine to form a red azo-dyc. The Griess reaction was performed at room temperature in about 10 minutes. The amount of produced NO was estimated from a standard curve of Griess reaction products determined spectrophotometrically as Absorbance at a wavelength of 550 nm.

[10] = tested on: zymosan-stimulated NO production by RAW 264.7 cells; assay: Zymosan-stimulated NO production by RAW 264.7 cells; format: cell-based, mouse
Experimental: as §5

BPI 73 (IKISGKWKAQFRFLK)
Quenching LPS [1]: 47% | Kd [1]: 66 nM | Quenching Heparin [2]: 19% | Kd [2]: 700 nM

IKISGKAβ-(1-naphthyl)KAAβ-(1-naphthyl)KRFLK (IKISGK[1Nal]KA[1Nal]KRFLK) [BPI.119]
pmol added to well to achieve a 30 mm^2 bactericidal zone, E. coli J5 [3]: 106.70 pmol | pmol added to well to achieve a 30 mm^2 bactericidal zone, E. coli O111:B4 [4]: 536.44 pmol | pmol added to well to achieve a 30 mm^2 bactericidal zone, S. aureus (Staphylococcus aureus): 166,163.83 pmol | bactericidal activity (in words) [5]: active against antibiotic resistant Klebsiella

IKISGKWKAWKRFLKK [BPI.103]
pmol added to well to achieve a 30 mm^2 bactericidal zone, E. coli J5 [3]: 165.18 pmol | pmol added to well to achieve a 30 mm^2 bactericidal zone, E. coli O111:B4 [4]: 415.19 pmol | pmol added to well to achieve a 30 mm^2 bactericidal zone, S. aureus (Staphylococcus aureus): 4,705.95 pmol | bactericidal activity (in words) [5]: active against antibiotic resistant Klebsiella

KRFLKKWKAQKRFLKKWKAQKRFLK [BPI.10.1]
bactericidal activity (in words) [3]: exhibited bactericidal activity | bactericidal activity (in words) [4]: exhibited bactericidal activity | bactericidal activity (in words) (E. coli J5 (rough)): significant bactericidal activity | bactericidal activity (in words) (E. coli 0111:B4 (smooth)): significant bactericidal activity

KWKAQKRFLKKWKAAARFLK [BPI.47]
bactericidal activity (in words) [3]: highly bactericidal | pmol added to well to achieve a 30 mm^2 bactericidal zone, E. coli J5 [3]: 97.73 pmol | heparin binding capacity (in words) [6]: extremely high heparin capacity | Heparin Capacity ([6]; heparin bound at saturation): 576.4 ng | Kd ([6]; read-out: Heparin Affinity): 1910 nM | pmol added to well to achieve a 30 mm^2 bactericidal zone, E. coli O111:B4 [4]: 576.74 pmol | pmol added to well to achieve a 30 mm^2 bactericidal zone, S. aureus (Staphylococcus aureus): 41,213.59 pmol | EC50 (peptide concentration at which the growth inhibitory effect of LPS was reversed by 50%) (RAW 264.7 cells): 0.9 ± 0.3 µg/mL | IC50 (peptide concentration at which RAW cell growth was inhibited by 50%) (RAW 264.7 cells): 9.8 ± 0.1 µg/mL | Quenching LPS [1]: 41% | Kd [1]: 115 nM | Quenching Heparin [2]: 47% | Kd [2]: 2200 nM

QKRFLKKWKAQKRFLKKWKAQKRFLK [BPI.10.2]
bactericidal activity (in words) [3]: exhibited bactericidal activity | bactericidal activity (in words) [4]: exhibited bactericidal activity | bactericidal activity (in words) (E. coli J5 (rough)): significant bactericidal activity | bactericidal activity (in words) (E. coli 0111:B4 (smooth)): significant bactericidal activity

B1: rBPI: recombinant BPI holoprotein (SEQ ID NO:69) (protein)
chain: MRENMARGPCNAPRWVSLMVLVAIGTAVTAAVNPGVVVRISQKGLDYASQQGTAALQKELKRIKIPDYSDSFKIKHLGKGHYSFYSMDIREFQLPSSQISMVPNVGLKFSISNANIKISGKWKAQKRFLKMSGNFDLSIEGMSISADLKLGSNPTSGKPTITCSSCSSHINSVHVHISKSKVGWLIQLFHKKIESALRNKMNSQVCEKVTNSVSSKLQPYFQTLPVMTKIDSVAGINYGLVAPPATTAETLDVQMKGEFYSENHHNPPPFAPPVMEFPAAHDRMVYLGLSDYFFNTAGLVYQEAGVLKMTLRDDMIPKESKFRLTTKFFGTFLPEVAKKFPNMKIQIHVSASTPPHLSVQPTGLTFYPAVDVQAFAVLPNSSLASLFLIGMHTTGSMEVSAESNRLVGELKLDRLLLELKHSNIGPFPVELLQDIMNYIVPILVLPRVNEKLQKGFPLPTPARVQLYNVVLQPHQNFLLFGADVVYK
effect on the clotting time of heparinized blood (in words) [7]: less of a decrease in clotting times | IC50 (inhibition of Lipid A binding of radiolabeled rLBP) [8]: 0.65 µg/mL | IC50 ([8]; read-out: IC50 (inhibition of Lipid A binding of radiolabeled rLBP)): 13 nM | inhibition of LPS-stimulated NO production (in words) [9]: inhibited in a concentration-dependent manner | inhibition of zymosan-stimulated NO production (in words) [10]: no significant inhibition
